Laboratory results as given in paper PMC10175918 (Communications Biology, 2023).
Where two headings read alike, the source gives them in different places.

Assays:
Assay in all cases: TGFα-shedding assay-based GPCR screening with chimeric Gα subunit proteins
Format in all cases: cell-based
348 GPCRs [1] = target: T1, 348 GPCRs (Homo sapiens, UniProt P28335); conditions: 10µM, Favipiravir 100μM
T1 sequence (P28335 33-458): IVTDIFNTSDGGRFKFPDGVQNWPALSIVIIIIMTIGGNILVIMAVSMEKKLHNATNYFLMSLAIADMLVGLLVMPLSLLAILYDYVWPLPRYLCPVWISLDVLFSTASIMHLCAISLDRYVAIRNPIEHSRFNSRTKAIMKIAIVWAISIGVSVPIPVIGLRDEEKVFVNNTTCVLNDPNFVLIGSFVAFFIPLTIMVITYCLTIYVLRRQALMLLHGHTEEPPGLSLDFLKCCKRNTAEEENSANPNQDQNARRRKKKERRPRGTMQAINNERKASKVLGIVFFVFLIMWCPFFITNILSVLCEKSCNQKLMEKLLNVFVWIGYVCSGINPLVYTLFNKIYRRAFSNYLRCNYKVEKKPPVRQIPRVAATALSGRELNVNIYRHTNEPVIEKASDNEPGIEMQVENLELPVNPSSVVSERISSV

348 GPCRs [2] = target: 348 GPCRs (Homo sapiens, UniProt Q8TDS4)
Sequence of 348 GPCRs (Homo sapiens, UniProt Q8TDS4) (Q8TDS4 whole entry): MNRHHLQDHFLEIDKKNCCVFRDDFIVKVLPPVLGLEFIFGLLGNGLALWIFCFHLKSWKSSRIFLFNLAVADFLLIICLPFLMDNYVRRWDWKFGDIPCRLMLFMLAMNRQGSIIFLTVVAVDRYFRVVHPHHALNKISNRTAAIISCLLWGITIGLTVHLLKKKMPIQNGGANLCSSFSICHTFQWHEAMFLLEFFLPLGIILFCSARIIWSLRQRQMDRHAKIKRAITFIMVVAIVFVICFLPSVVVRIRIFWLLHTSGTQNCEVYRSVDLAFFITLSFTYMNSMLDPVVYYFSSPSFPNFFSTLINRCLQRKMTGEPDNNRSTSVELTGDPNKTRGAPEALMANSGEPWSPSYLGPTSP

348 GPCRs [3] = target: T2, 348 GPCRs (Homo sapiens, UniProt Q8IZF2)
T2 construct: expressed in transfected cells; host or cells: HEK293A
T2 sequence (Q8IZF2 22-1346): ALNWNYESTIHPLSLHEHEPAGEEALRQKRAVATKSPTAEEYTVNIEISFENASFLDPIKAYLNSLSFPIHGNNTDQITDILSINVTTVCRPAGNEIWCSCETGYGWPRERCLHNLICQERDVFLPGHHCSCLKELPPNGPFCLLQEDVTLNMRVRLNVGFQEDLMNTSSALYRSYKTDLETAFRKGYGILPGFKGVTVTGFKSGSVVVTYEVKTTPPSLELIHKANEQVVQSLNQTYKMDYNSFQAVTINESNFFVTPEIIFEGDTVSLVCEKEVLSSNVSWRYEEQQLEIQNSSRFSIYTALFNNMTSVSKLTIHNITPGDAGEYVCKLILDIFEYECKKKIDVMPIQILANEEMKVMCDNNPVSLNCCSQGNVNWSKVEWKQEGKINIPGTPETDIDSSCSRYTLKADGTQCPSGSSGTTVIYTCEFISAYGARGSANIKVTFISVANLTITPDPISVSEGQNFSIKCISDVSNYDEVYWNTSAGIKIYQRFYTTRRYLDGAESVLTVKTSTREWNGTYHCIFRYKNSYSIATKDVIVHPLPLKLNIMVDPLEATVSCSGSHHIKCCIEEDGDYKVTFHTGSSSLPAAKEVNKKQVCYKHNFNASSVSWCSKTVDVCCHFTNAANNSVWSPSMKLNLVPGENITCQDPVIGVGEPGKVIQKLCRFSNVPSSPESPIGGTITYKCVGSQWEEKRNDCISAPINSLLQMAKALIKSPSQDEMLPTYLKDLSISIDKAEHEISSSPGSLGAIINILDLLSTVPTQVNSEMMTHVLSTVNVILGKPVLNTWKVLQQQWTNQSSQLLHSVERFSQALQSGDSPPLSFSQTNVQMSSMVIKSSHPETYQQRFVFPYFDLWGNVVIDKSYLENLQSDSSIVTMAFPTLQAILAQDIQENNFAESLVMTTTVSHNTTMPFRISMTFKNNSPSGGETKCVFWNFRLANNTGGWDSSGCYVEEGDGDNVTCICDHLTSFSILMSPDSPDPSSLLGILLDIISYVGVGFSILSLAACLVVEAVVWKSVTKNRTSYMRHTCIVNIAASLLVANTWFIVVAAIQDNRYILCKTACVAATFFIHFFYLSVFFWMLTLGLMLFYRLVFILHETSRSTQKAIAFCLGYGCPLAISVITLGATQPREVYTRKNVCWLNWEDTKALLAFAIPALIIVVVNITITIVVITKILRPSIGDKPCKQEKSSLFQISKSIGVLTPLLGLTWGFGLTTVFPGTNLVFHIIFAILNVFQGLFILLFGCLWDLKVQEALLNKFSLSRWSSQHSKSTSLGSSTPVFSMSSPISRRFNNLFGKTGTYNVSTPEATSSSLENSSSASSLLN

348 GPCRs [4] = target: 348 GPCRs (Homo sapiens, UniProt P21728); conditions: 10µM, Favipiravir 100μM
Sequence of 348 GPCRs (Homo sapiens, UniProt P21728) (P21728 whole entry): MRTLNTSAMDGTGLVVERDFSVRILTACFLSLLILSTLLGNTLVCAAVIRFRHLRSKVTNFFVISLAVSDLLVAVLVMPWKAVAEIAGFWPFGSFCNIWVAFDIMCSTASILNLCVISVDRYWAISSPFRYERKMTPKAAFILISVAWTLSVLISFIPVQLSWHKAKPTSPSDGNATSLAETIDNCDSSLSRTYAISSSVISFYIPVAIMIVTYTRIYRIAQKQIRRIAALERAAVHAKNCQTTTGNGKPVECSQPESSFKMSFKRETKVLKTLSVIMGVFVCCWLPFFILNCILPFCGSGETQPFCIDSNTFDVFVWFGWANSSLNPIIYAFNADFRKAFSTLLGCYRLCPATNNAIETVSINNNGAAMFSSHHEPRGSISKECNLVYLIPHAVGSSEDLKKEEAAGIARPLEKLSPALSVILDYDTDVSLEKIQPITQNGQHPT

348 GPCRs [5] = target: T3, 348 GPCRs (Homo sapiens, UniProt Q9ULV1); conditions: 10µM, Favipiravir 100μM
T3 construct: expressed in transfected cells; host or cells: HEK293A
T3 sequence (Q9ULV1 37-537): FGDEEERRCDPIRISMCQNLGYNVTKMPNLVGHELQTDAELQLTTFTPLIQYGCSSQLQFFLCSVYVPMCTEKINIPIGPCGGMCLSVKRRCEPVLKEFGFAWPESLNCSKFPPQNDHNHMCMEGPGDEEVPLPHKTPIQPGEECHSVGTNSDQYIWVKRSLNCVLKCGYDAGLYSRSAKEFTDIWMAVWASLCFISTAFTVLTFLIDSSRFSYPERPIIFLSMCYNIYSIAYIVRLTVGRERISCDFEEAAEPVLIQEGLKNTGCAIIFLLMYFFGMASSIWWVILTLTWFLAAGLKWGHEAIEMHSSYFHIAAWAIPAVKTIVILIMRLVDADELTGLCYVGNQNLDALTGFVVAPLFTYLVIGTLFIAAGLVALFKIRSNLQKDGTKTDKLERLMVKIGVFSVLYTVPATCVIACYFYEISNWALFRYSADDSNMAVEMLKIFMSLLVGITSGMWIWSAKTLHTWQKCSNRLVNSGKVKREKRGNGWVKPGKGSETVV

[6] = 5-HT2C (5-hydroxytryptamine receptor 2C), read-out: % GPCR activation compared to TPA
[7] = HCA2, GPCR GPR109A (hydroxycarboxylic acid receptor 2 (HCA2)), read-out: % GPCR activation compared to TPA
[8] = GPCR GPR116 (G-protein-coupled receptor 116 (ADGRF5)), read-out: % GPCR activation compared to TPA
[9] = D1 (dopamine receptor D1), read-out: % GPCR activation compared to TPA
[10] = FZD4 (frizzled family receptor 4), read-out: % GPCR activation compared to TPA
[11] = read-out: % GPCR activation compared to TPA, 5-HT2C (5-hydroxytryptamine receptor 2C)
[12] = HCA2, read-out: % GPCR activation compared to TPA, GPCR GPR109A (hydroxycarboxylic acid receptor 2 (HCA2))
[13] = read-out: % GPCR activation compared to TPA, GPCR GPR116 (G-protein-coupled receptor 116 (ADGRF5))
[14] = read-out: % GPCR activation compared to TPA, D1 (dopamine receptor D1)
[15] = read-out: % GPCR activation compared to TPA, FZD4 (frizzled family receptor 4)

| SMILES | activation at 100 µM (348 GPCRs [1]; [6]) [%] | activation at 10 µM (348 GPCRs [2]; [7]) [%] | activation at 10 µM (348 GPCRs [3]; [8]) [%] | activation at 10 µM (348 GPCRs [4]; [9]) [%] | activation at 100 µM (348 GPCRs [5]; [10]) [%] | activation at 100 µM (348 GPCRs [1]; [11]) [%] | activation at 10 µM (348 GPCRs [2]; [12]) [%] | activation at 10 µM (348 GPCRs [3]; [13]) [%] | activation at 10 µM (348 GPCRs [4]; [14]) [%] | activation at 100 µM (348 GPCRs [5]; [15]) [%] | activation at 100 µM (348 GPCRs [2]; HCA2, GPCR GPR109A (hydroxycarboxylic acid receptor 2 (HCA2)), 100μM, read-out: % GPCR activation compared to TPA) [%] | activation at 100 µM (348 GPCRs [3]; GPCR GPR116 (G-protein-coupled receptor 116 (ADGRF5)), 100μM, read-out: % GPCR activation compared to TPA) [%] |
| --- | --- | --- | --- | --- | --- | --- | --- | --- | --- | --- | --- | --- |
| N#C[C@@]1(c2ccc3c(N)ncnn23)O[C@H](CO)[C@@H](O)[C@H]1O [GS441524] | 0.017 | 0.689 | -2.91 | 0.291 | 4.3 | – | – | – | – | – | – | – |
| CC(C)OC(=O)[C@H](C)N[P@](=O)(OC[C@H]1O[C@@H](n2ccc(=O)[nH]c2=O)[C@](C)(F)[C@@H]1O)Oc1ccccc1 [sofosbuvir] | – | – | – | – | – | -0.973 | -29.6 | -0.621 | -0.068 | -0.222 | – | – |
| CCC(CC)COC(=O)[C@H](C)N[P@](=O)(OC[C@H]1O[C@@](C#N)(c2ccc3c(N)ncnn23)[C@H](O)[C@@H]1O)Oc1ccccc1 [remdesivir] | – | – | – | – | – | -0.0017 | 2.36 | -2.59 | 4.77 | 3.99 | – | – |
| CC(C)C(=O)OC[C@H]1O[C@@H](n2ccc(NO)nc2=O)[C@H](O)[C@@H]1O [molnupiravir] | -2.97 | -37.5 | -2.23 | 1.11 | 1.08 | – | – | – | – | – | – | – |
| NC(=O)c1nc(F)cnc1O [favipiravir, 6-fluoro-3-hydroxy-2-pyrazinecarboxamide] | 3.15 | – | – | -0.0785 | 0.755 | – | – | – | – | – | 1.41 | -1.79 |
